PubChem BioAssay (NCI)
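Five concentrations, 48 hours, 96-well plates. TGI marks complete inhibition of growth.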

Columns and labels:
Experiment in all cases: inhibition of tumour cell growth, NCI panel, 48 h
HCC-2998 colon = system: HCC-2998 colon
ACHN renal = system: ACHN renal
MALME-3M melanoma = system: MALME-3M melanoma
A549 NSCLC = system: A549 NSCLC
HOP-92 NSCLC = system: HOP-92 NSCLC
SN12C renal = system: SN12C renal
786-0 renal = system: 786-0 renal
SK-MEL-28 melanoma = system: SK-MEL-28 melanoma
MDA-N = system: MDA-N
U251 CNS = system: U251 CNS
SF-295 CNS = system: SF-295 CNS
MDA-MB-435 = system: MDA-MB-435
SR leukemia = system: SR leukemia
RXF 393 renal = system: RXF 393 renal
OVCAR-3 ovarian = system: OVCAR-3 ovarian
HOP-62 NSCLC = system: HOP-62 NSCLC
UACC-257 melanoma = system: UACC-257 melanoma
SK-OV-3 ovarian = system: SK-OV-3 ovarian

Row | Structure (SMILES) | TGI (HCC-2998 colon) [µM] | TGI (ACHN renal) [µM] | TGI (MALME-3M melanoma) [µM] | TGI (A549 NSCLC) [µM] | TGI (HOP-92 NSCLC) [µM] | TGI (SN12C renal) [µM] | TGI (786-0 renal) [µM] | TGI (SK-MEL-28 melanoma) [µM] | TGI (MDA-N) [µM] | TGI (U251 CNS) [µM] | TGI (SF-295 CNS) [µM] | TGI (MDA-MB-435) [µM] | TGI (SR leukemia) [µM] | TGI (RXF 393 renal) [µM] | TGI (OVCAR-3 ovarian) [µM] | TGI (HOP-62 NSCLC) [µM] | TGI (UACC-257 melanoma) [µM] | TGI (SK-OV-3 ovarian) [µM]
1 | COc1ccc(C2C(C#N)=C(S)N(C3OC(CO)C(O)C(O)C3O)C(C)=C2C(C)=O)cc1 (configuration not stated) | > 100 | > 100 | > 100 | > 100 | > 100 | > 100 | > 100 | > 100 | > 100 | > 100 | > 100 | > 100 | > 100 | > 100 | > 100 | > 100 | > 100 | 
2 | O=c1c2cc(I)ccc2nc(SCc2nnco2)n1Cc1ccccc1 | > 100 | > 100 |  | > 100 | > 100 | > 100 | > 100 | > 100 | > 100 | > 100 | > 100 | > 100 | > 100 | > 100 | > 100 | > 100 | > 100 | > 100
3 | COC12C=CC(CC1)C(C)(C)C2OS(C)(=O)=O (configuration not stated) | > 100 | > 100 | > 100 | > 100 | > 100 | > 100 | > 100 | > 100 | > 100 | > 100 | > 100 | > 100 | > 100 | > 100 | > 100 | > 100 | > 100 | > 100
4 | CC(=O)c1[nH]c(Nc2ccc(C)cc2)c(C(=S)Nc2ccccc2)c1N | 56.5 | 36.2 | 31.9 | 30.7 | 35.9 | 35 | 34.3 | 45.3 | 37.2 | 29.9 | 39.7 | 30.9 | > 100 | 27.9 | 35.5 | 42.1 | 36.5 | > 100
5 | S=C(N/N=C(\C(=N/NC(=S)N1CCCCC1)c1ccccn1)c1ccccn1)N1CCCCC1 | > 100 | 91.6 | > 100 | > 100 | > 100 |  | > 100 | > 100 | > 100 | > 100 | > 100 | > 100 | > 100 | 73.4 | > 100 | > 100 | > 100 | > 100
6 | CCOC(=O)C(NC(=O)CC)(Nc1ccc(S(=O)(=O)Nc2ccc(OC)nn2)cc1)C(F)(F)F (configuration not stated) | > 100 | > 100 | > 100 | > 100 | > 100 | > 100 | > 100 | > 100 | > 100 | > 100 | > 100 | > 100 | > 100 | > 100 | > 100 | > 100 | > 100 | > 100
7 | O=C(NNS(=O)(=O)c1ccccc1)c1csc(NC(=S)NC2CCCCC2)n1 | > 100 | 93.6 | > 100 | > 100 | > 100 | 39.3 | 32.4 |  | 40.2 | > 100 | > 100 | 43.3 | > 100 |  | 34.4 | > 100 | 53.8 | > 100
8 | C[C@]12CC[C@H](O)CC1=CC[C@@H]1[C@@H]2CC[C@]2(C)C(=O)/C(=C/c3ccc([N+](=O)[O-])cc3)C[C@@H]12 | > 100 | 33.4 | 53.7 | 29.8 | 22.6 | 33 | 10.8 | 74.7 | > 100 |  | 20.6 | > 100 | > 100 | 25 | 33.8 | 17 | 56 | 22.6
9 | CN(C)C=NCC(O)c1ccccc1 (configuration not stated) |  | > 100 | > 100 | > 100 | > 100 | > 100 | > 100 | > 100 | > 100 |  |  | > 100 | > 100 | > 100 | > 100 | > 100 |  | > 100
10 | O=C1O[C@H]2C3C4CCC(C4[C@@H]2I)[C@H]13 (some centres not stated) | > 100 | > 100 | > 100 | > 100 | > 100 | > 100 | > 100 | > 100 | > 100 | > 100 | > 100 | > 100 | > 100 | > 100 | > 100 | > 100 | > 100 | 
11 | CN(C)CC1CCCc2ccccc2C1=O (configuration not stated) | 12 | 3.3 | 3.62 | 39.5 | 34.8 | 24.2 | 2.8 | 13 | 3.07 | 3.12 | 32.5 | 2.62 | > 100 | 11.7 | 3.57 | 33.7 | 18.9 | 32.7
12 | O=c1[nH]c(=O)n(COCc2ccccc2)c2ccccc12 |  | > 100 |  | > 100 | > 100 | > 100 | > 100 | > 100 | > 100 | > 100 | > 100 | > 100 | > 100 | 94.5 | > 100 |  | > 100 | > 100
13 | O=C1CC(C(COCc2ccccc2)OCc2ccccc2)CC(=O)N1 (configuration not stated) | > 100 | > 100 | > 100 | > 100 | > 100 | > 100 | > 100 | > 100 | > 100 | > 100 | > 100 | > 100 | > 100 |  | > 100 | > 100 | > 100 | 
14 | CS(=O)(=O)OCC1CCCCCCCCCCC12SCCCS2 (configuration not stated) | > 100 | > 100 | > 100 | > 100 | > 100 | > 100 | > 100 | > 100 | > 100 | > 100 | > 100 | > 100 | > 100 | > 100 | > 100 | > 100 | > 100 | > 100
15 | COc1cc(/C=C/C(=N\NC(=S)NN)c2sc(NNC(C)=O)nc2C)ccc1O | > 100 | > 100 | > 100 | > 100 | > 100 | > 100 | > 100 | > 100 | > 100 | > 100 | > 100 | > 100 | > 100 | > 100 | > 100 | > 100 | > 100 | > 100
16 | COc1ccc(-c2nc(-c3cnccn3)n(Cc3ccccc3)n2)cc1 | > 100 |  |  | > 100 | > 100 | > 100 | > 100 | > 100 | > 100 | > 100 | > 100 | > 100 | > 100 | > 100 | > 100 | > 100 | > 100 | > 100
17 | O=C1/C(=C/c2ccc(Cl)cc2)CCC1CN1CCOCC1 (configuration not stated) | 23 | 24.8 | 20.3 | 55.9 | 16.1 | 8.9 | 6.2 | 21.5 | 18.4 | 40.2 | 38.1 | 14.3 | 5.29 | 11.2 | 15 | 35.1 | 21.8 | 31.9
18 | Cc1c2cccc-2c(OCCOC(=O)n2ccnc2)cc2c1[nH]c1ccccc12 | 12.1 | 7.27 | 7.61 | 11 | 4.28 | 5.89 | 19.9 | 4.63 | 17.5 |  | 10.9 | 9.69 | > 100 |  | 4.64 | 28.4 | 6.24 | 18.8
19 | O=C1CCCCN1C(=O)c1ccc([N+](=O)[O-])cc1 | > 100 | > 100 | > 100 | > 100 | > 100 | > 100 | > 100 | > 100 | > 100 | > 100 | > 100 | > 100 | > 100 | > 100 | > 100 | > 100 | > 100 | 
20 | CN1C=COC1N=C1CCCCC1 (configuration not stated) | > 100 | > 100 | > 100 | > 100 | > 100 | > 100 | > 100 | > 100 | > 100 | > 100 | > 100 | > 100 | > 100 | > 100 | > 100 | > 100 |  | > 100
21 | COc1cc(S(=O)(=O)Nc2ccc(-c3csc(N4C(=O)C(C)SC4c4ccccc4)n3)cc2)ccc1Cl (configuration not stated) |  | > 100 | > 100 | > 100 | > 100 | > 100 | > 100 | > 100 | > 100 |  |  | > 100 | > 100 | 47.4 | > 100 |  | > 100 | 
22 | NCCS(=O)(=O)O | > 100 | > 100 | > 100 | > 100 | > 100 | > 100 | > 100 | > 100 | > 100 | > 100 | > 100 | > 100 | > 100 |  | > 100 | > 100 | > 100 | 
23 | C[C@@]12C[C@@H](c3ccccc3O1)N1Cc3ccccc3CSC1=N2 | > 100 | > 100 | > 100 |  | > 100 | > 100 | > 100 | > 100 | > 100 | > 100 | > 100 | > 100 | > 100 | > 100 | > 100 | > 100 | > 100 | > 100
24 | O=C(/C=C/c1ccccc1)Oc1cccc(Br)c1 | > 100 | > 100 |  | > 100 | > 100 | > 100 | > 100 | > 100 | > 100 | > 100 | 68.3 | > 100 | 59.3 | > 100 | > 100 | > 100 | > 100 | > 100
25 | CC1C(C#N)(C#N)C(C#N)=C(N)C1(C)[N+](=O)[O-] (configuration not stated) | > 100 | > 100 | > 100 | > 100 | 8.96 | > 100 | > 100 |  | > 100 | > 100 | > 100 | > 100 | > 100 | > 100 | > 100 | > 100 | > 100 | > 100
26 | CO[C@]12CC(=O)C3(C(C[C@H]4CC5CC[C@H]6C[C@@H](OC(C)=O)CC[C@]6(OC(C)=O)C5C[C@@]43C)C1)C1C[C@H]3[C@@H]4CC[C@H]5C[C@@H](OC(C)=O)CC[C@]5(OC(C)=O)[C@H]4CC[C@]3(C)C12 (some centres not stated) | > 100 | > 100 | > 100 | > 100 | > 100 | > 100 | > 100 | > 100 | > 100 | > 100 | > 100 | > 100 | > 100 |  | > 100 | > 100 | > 100 | > 100
27 | Cc1cn([C@@H]2C[C@H](CO)[C@@H]2O)c(=O)[nH]c1=O | > 100 | > 100 | > 100 | > 100 | > 100 | > 100 | > 100 | > 100 | > 100 | > 100 | > 100 | > 100 | > 100 | > 100 | > 100 | > 100 | > 100 | 
